Biological target: Multidrug resistance-associated protein 1 (Homo sapiens, UniProt P33527)
Assay: TP_TRANSPORTER: translocation from outer to inner leaflet in MRP1-asolectin proteoliposome
Assay type: functional, subcellular

Chain of Multidrug resistance-associated protein 1 (P33527 whole entry): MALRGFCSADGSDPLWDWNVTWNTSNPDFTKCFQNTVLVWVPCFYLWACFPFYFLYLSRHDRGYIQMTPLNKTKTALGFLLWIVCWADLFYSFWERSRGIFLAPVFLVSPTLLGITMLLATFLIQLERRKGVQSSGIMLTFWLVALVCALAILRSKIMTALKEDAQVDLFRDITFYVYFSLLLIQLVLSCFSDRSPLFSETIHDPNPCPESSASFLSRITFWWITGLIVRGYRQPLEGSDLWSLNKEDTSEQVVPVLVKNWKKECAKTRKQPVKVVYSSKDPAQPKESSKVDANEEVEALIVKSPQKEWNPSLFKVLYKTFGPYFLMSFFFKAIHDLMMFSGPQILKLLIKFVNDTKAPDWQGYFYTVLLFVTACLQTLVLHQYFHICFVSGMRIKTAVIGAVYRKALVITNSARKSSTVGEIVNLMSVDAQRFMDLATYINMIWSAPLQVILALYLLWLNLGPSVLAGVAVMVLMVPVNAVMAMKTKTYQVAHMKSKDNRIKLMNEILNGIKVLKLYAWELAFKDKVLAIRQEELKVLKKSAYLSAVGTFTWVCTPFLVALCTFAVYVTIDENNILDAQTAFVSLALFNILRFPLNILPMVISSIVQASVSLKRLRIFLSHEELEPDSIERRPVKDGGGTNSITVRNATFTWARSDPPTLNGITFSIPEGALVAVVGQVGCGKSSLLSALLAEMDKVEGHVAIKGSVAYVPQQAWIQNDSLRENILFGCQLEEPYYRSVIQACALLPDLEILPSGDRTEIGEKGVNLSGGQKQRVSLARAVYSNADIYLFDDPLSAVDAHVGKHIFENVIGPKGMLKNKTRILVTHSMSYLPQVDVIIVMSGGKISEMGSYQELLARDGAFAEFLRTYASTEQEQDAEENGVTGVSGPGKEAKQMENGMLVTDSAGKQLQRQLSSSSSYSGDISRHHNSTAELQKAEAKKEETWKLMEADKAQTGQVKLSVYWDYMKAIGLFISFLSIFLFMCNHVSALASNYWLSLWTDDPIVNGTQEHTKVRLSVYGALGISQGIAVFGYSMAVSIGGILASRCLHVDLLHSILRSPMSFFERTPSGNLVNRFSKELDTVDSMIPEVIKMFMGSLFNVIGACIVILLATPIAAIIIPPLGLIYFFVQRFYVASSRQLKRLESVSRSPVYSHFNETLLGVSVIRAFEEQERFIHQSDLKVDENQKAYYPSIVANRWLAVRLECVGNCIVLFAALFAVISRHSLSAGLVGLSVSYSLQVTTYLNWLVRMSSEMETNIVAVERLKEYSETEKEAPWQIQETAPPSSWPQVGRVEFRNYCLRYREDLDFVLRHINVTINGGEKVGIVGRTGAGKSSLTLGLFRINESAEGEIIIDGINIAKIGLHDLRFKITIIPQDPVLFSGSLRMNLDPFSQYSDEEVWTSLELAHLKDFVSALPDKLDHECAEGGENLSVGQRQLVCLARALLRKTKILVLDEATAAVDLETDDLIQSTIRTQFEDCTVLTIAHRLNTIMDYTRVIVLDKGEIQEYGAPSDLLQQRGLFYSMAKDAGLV

Activity: substrate []
Structure (SMILES): CCCCCC(=O)OCC(COP(=O)([O-])OCC[N+](C)(C)c1ccc([N+](=O)[O-])c2nonc12)OC(=O)CCCCC (stereo unspecified)

Source: ChEMBL document CHEMBL2074071, “Fluorescent modified phosphatidylcholine floppase activity of reconstituted multidrug resistance-associated protein MRP1” (Biochim Biophys Acta, 2004)
